Data on five compounds can be found in US11026426B2, “Oxadiazole and phenol derivatives as antibacterial and/or herbicidal agents” (NORTHERN ILLINOIS RESEARCH FOUNDATION, priority 2017, dated 2021).

Data set [1] deals with T1, Mycobacterium tuberculosis IspD (MtIspD) (Mycobacterium tuberculosis, UniProt P9WKG9).
T1 sequence (P9WKG9 1-231): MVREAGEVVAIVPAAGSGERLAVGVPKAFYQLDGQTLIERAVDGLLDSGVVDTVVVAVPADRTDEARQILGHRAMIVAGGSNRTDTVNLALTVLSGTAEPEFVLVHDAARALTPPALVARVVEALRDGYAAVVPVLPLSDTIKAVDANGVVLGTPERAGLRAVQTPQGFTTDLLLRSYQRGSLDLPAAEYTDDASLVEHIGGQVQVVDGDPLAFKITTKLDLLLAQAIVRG
Kind of data set: Thermal shift assay against MtIspD. In kind it is binding.

The target of data set [2] is Lycopersicon esculentum IspE (LeIspE) (Solanum lycopersicum, UniProt P93841). In words: Thermal shift assay against LeIspE. In kind it is binding.
Lycopersicon esculentum IspE (LeIspE), sequence (P93841 89-401): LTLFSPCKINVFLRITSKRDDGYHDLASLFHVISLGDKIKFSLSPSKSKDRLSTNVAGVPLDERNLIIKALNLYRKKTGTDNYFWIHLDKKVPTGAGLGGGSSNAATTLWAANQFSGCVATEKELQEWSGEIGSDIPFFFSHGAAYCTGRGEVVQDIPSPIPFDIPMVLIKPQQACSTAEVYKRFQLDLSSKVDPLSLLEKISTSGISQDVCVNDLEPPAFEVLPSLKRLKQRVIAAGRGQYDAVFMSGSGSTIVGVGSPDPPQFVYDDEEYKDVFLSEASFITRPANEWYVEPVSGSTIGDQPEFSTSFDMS
Data set [3] has as its system lettuce seeds. In words: Lettuce leaf assay. The following applies: ranking 0-5. Also on record: key: 0 (no effect); 5(complete inhibition or bleaching). In kind it is in vivo. An excerpt:
The lettuce leaf assay is a qualitative assay used to determine the relative effectiveness of the test compounds at inhibition of germination of seeds and root development as well as causing bleaching of leaves. Isoprenoid synthesis is vital in plants as isoprene-product gibberellins are a class of growth hormones in plants responsible for stimulating cell elongation and division. In addition, some carotenoids are involved in photosynthesis as components of the electron transport chain. MEP pathway inhibitors have the potential to prevent synthesis of these necessary cellular components and growth hormones resulting in inhibition of germination and root development as well as causing chlorosis, or bleaching in the leaves. The lettuce leaf assay, explores the effects of compounds as potential MEP pathway inhibitors by evaluating the effect on bleaching, root development, and germination of lettuce seeds, which all rely on isoprenoid biosynthesis. […] The assay is a qualitative assay and the effects are given rankings from 0 (no effect) to 5 (complete inhibition or bleaching). In this assay, compounds are dissolved in a volatile organic solvent and applied to filter paper in a petri dish. The solvent is allowed to evaporate and lettuce seeds are applied followed by the addition of 5 mL of water to obtain the necessary concentrations. Seeds are allowed to grow and they are observed on day 3 and day 4 for evaluation.

Data set [4] deals with AtIspD (Arabidopsis thaliana, UniProt P69834). In words: University of Hamburg photometric enzymatic inhibition assay AtIspD. In kind it is biochemical. On the procedure:
(§1) Compounds were subjected to a photometric enzymatic assay to test for inhibition of the plant enzymes Arabidopsis thaliana IspD and IspF, and IspE from Lycopersicon esculentum.
The procedure for AtIspD enzymatic inhibition assay, was performed by making an assay mixture of 100 mM Tris hydrochloride at pH 8.0 with 10 mM MgCl2, 1 mM dithiothreitol, 2.5 mM potassium phosphoenol pyruvate, 2.1 mM CTP, 2 mM ATP, 1 mM of (2R,3S)-2,3-dihydroxy-4-oxopentyl phosphate, 460 μM NADH, 1.1% (v/v) DMSO, 0.4 U IspE, 1 U lactate dehydrogenase, 1 U pyruvate kinase and 2.4 mU IspD in 180 μL of solution. Solutions were incubated at 27° C. and monitored photometrically. By preparing the assay mixture with a large excess of IspE compared to IspD, any inhibition of IspE by the test inhibitor would be insignificant compared to IspD and therefore the rate of the reaction is determined by IspD activity.

In data set [5] the target is LeIspE (Solanum lycopersicum, UniProt P93841). Kind of data set: University of Hamburg photometric enzymatic inhibition assay LeIspE. In kind it is biochemical, Lycopersicon esculentum. The procedure: as §1
LeIspE, sequence (P93841 89-401): as above
The IspE assay conditions were very similar to the IspD assay in which the assay mixture was composed of 100 mM Tris hydrochloride at pH 8.0 with 10 mM MgCl2, 1 mM dithiothreitol, 2.5 mM potassium phosphoenol pyruvate, 2 mM ATP, 1 mM of 4-Diphosphocytidyl-2-C-methylerythritol, 460 μM NADH, 1.1% (v/v) DMSO, 2.4 mU IspE, 1 U lactate dehydrogenase, 1 U pyruvate kinase in 180 μL of solution. Solutions were incubated at 27° C. and monitored photometrically.

The target in data set [6] is AtIspF (Arabidopsis thaliana, UniProt Q9CAK8). In words: University of Hamburg photometric enzymatic inhibition assay AtIspF. In kind it is biochemical. The procedure: as §1
AtIspF, sequence (Q9CAK8 53-231): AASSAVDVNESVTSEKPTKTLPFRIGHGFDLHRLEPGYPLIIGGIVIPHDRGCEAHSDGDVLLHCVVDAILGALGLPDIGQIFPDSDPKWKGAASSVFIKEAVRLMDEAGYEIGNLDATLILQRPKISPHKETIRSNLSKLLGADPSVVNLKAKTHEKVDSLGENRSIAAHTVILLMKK
The IspF assay mixture conditions were as follows: 100 mM Tris hydrochloride at pH 8.0 with 10 mM MgCl2, 1 mM dithiothreitol, 2.5 mM potassium phosphoenol pyruvate, 2 mM ATP, 1 mM of 4-diphosphocytidyl-2C methylerythritol 2-phosphate, 460 μM NADH, 1.1% (v/v) DMSO, 0.5 U CMP kinase, 2.4 mU IspF, 1 U lactate dehydrogenase, 1 U pyruvate kinase in 180 μL of solution. Solutions were incubated at 27° C. and monitored photometrically.

For data set [7], the system named is Burkholderia thailandensis. In kind it is cell-based. The following applies: preliminary screening; for BT score: score 0-3.
For data set [8], the system named is Mycobacterium smegmatis. In words: Antibacterial preliminary screening MS. In kind it is cell-based. As to conditions: for MS score: score 0-3.
The test system of data set [9] is Corynebacterium xerosis. In words: Antibacterial preliminary screening CX. Also: key: 0 represents no inhibition; 3 is comparable to commercial antibiotic control. As to conditions: score 0-3. In kind it is cell-based.
The test system of data set [10] is Corynebacterium pseudodiphtheriae. In words: Antibacterial preliminary screening CP.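 Also: 0 is no inhibition and 3 matches the commercial antibiotic control.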 In kind it is cell-based. As to conditions: score 0-3.
The test system of data set [11] is Escherichia coli. In words: Antibacterial preliminary screening EC. Also: key: 0 represents no inhibition; 3 is comparable to commercial antibiotic control. In kind it is cell-based. As to conditions: score 0-3.
The test system of data set [12] is Klebsiella pneumonia. Kind of data set: Antibacterial preliminary screening KP. Also: key: 0 represents no inhibition; 3 is comparable to commercial antibiotic control. In kind it is cell-based. As to conditions: score 0-3.
For data set [13], the system named is Micrococcus luteus. In words: Antibacterial preliminary screening ML. Also: key: 0 represents no inhibition; 3 is comparable to commercial antibiotic control. The following applies: score 0-3. In kind it is cell-based.
The subject of data set [14] is Bacillus cereus. Kind of data set: Antibacterial preliminary screening BC. Also: key: 0 represents no inhibition; 3 is comparable to commercial antibiotic control. As to conditions: score 0-3. In kind it is cell-based.
For data set [15], the system named is Pseudomonas aeruginosa. In words: Antibacterial preliminary screening PA. Also: key: 0 represents no inhibition; 3 is comparable to commercial antibiotic control. In kind it is cell-based. As to conditions: score 0-3.

Like-named read-outs stand apart in the source and are kept apart here.

AtIspD, sequence (P69834 62-302): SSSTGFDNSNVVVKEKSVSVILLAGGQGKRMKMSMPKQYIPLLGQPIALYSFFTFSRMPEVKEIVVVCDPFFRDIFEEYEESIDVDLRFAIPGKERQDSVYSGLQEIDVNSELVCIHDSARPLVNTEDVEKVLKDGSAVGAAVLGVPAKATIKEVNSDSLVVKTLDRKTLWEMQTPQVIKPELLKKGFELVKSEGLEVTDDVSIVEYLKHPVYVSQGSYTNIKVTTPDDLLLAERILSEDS

In general, IC50 refers to the midpoint of a concentration-inhibition curve. Broadly, the melting point is the temperature of the solid-liquid transition. The compound `Cc1ccc(-c2nnc(-c3cc4ccccc4[nH]3)o2)cc1` [HGN-242, 2-(1H-indol-2-yl)-5-(p-tolyl)-1,3,4-oxadiazole] gave a melting point of 228 to 234 °C. In data set [1], the “MtIspD melting point change” value was 0.8 °C and the MtIspD melting temp was determined as 48.8 °C. Further, in [2], the “LeIspE melting point change” value was −1.75 °C and the LeIspE melting temp stood at 47.75 °C. In addition, in [3] (0.5 mM), the Bleaching is 0, the Germination was 2 and the “Root Dev.” value stood at 0. In [3] (1.0 mM), the Bleaching was 0, the Germination amounted to 4 and the “Root Dev.” value amounted to 0. Also, the IC50 in [4] (read-out: AtIspD IC50) stood at 225 ± 17 µM. The IC50 in data set [5] (read-out: LeIspE IC50) came to 109 ± 35 µM. Besides, the half-maximal inhibitory concentration (IC50) in [6] (read-out: AtIspF IC50) is more than 1000 µM. The compound further registered a BT score in data set [7] of 0. Also, the MS score in [8] worked out at 0. This compound displayed a CX score in data set [9] of 0. The compound further returned a CP score in [10] of 0. The compound further returned an EC score in data set [11] of 0. This compound registered a KP score in [12] of 0. This compound returned an ML score in [13] of 0. Also, the BC score in [14] was 0. For the same compound, the PA score in data set [15] is given as 0.

As to `COc1ccc(-c2nnc(-c3nc4ccccc4s3)o2)cc1` [HGN-336, 2-(benzo[d]thiazol-2-yl)-5-(4-methoxyphenyl)-1,3,4-oxadiazole], the melting point fell in the range of 167 to 169 °C. The MtIspD melting temp in [1] was found to be 49.5 °C. Besides, in [2], the “LeIspE melting point change” value is −1.25 °C and the LeIspE melting temp came to 48.25 °C. In addition, in data set [3] (0.15 mM), the Bleaching is on record as 0, the Germination is 1 and the “Root Dev.” value was 0. For the same compound, in [3] (0.3 mM), the Bleaching was found to be 0, the Germination was found to be 0 and the “Root Dev.” value worked out at 0. Further, in data set [4] (read-out: AtIspD IC50), the concentration for half-maximal inhibition (IC50) was more than 500 µM. The IC50 in [5] (read-out: LeIspE IC50) stood at 493 ± 49 µM. The IC50 in data set [6] (read-out: AtIspF IC50) is more than 500 µM. In [7], this compound came in with a BT score of 0. The compound further showed an MS score in data set [8] of 0. For the same compound, the CX score in data set [9] is reported as 0. The CP score in data set [10] is on record as 0. The compound also came in with an EC score in data set [11] of 0. In addition, the KP score in [12] was 0. This compound also displayed an ML score in data set [13] of 0. In addition, the BC score in data set [14] was determined as 0. Further, the PA score in data set [15] came out at 0.

Take `FC(F)(F)c1ccc(-c2nnc(-c3nc4ccccc4s3)o2)cc1` [HGN-337, 2-(benzo[d]thiazol-2-yl)-5-(4-(trifluoromethyl)phenyl)-1,3,4-oxadiazole]: the melting point fell in the range of 145 to 148 °C. Further, in data set [1], the “MtIspD melting point change” value worked out at 0.8 °C and the MtIspD melting temp is 48.8 °C. Also, in data set [2], the “LeIspE melting point change” value was −1.75 °C and the LeIspE melting temp stood at 47.75 °C. Moreover, in data set [3] (0.15 mM), the Bleaching was 0, the Germination was 0 and the “Root Dev.” value is 0. Further, in data set [3] (0.3 mM), the Bleaching is 0, the Germination is 0 and the “Root Dev.” value is 0. Moreover, in data set [4] (read-out: AtIspD IC50), the IC50 is more than 500 µM. Moreover, the half-inhibitory concentration (IC50) in data set [5] (read-out: LeIspE IC50) is more than 500 µM. Further, in data set [6] (read-out: AtIspF IC50), the IC50 was more than 500 µM. The same compound came in with a BT score in data set [7] of 0. For the same compound, the MS score in data set [8] came to 0. This compound came in with a CX score in [9] of 0. The CP score in data set [10] was 0. Further, the EC score in data set [11] is reported as 0. The same compound showed a KP score in data set [12] of 0. Besides, in [13], the ML score came out at 0. The BC score in data set [14] came out at 0. This compound yielded a PA score in data set [15] of 0.

As for `O=[N+]([O-])c1cc(-c2nnc(-c3nc4ccccc4s3)o2)cc([N+](=O)[O-])c1` [HGN-334, 2-(benzo[d]thiazol-2-yl)-5-(3,5-dinitrophenyl)-1,3,4-oxadiazole], the melting point fell in the range of 180 to 185 °C. In [1], the “MtIspD melting point change” value is 0.0 °C and the MtIspD melting temp was found to be 48.0 °C. For the same compound, in data set [2], the “LeIspE melting point change” value was −1.50 °C and the LeIspE melting temp turned out to be 48.00 °C. Moreover, in data set [3] (0.15 mM), the Bleaching is 0, the Germination is listed as 0 and the “Root Dev.” value is given as 0. Besides, in data set [3] (0.3 mM), the Bleaching is reported as 0, the Germination was determined as 0 and the “Root Dev.” value came to 0. For the same compound, the IC50 in [4] is more than 500 µM. For the same compound, the IC50 in data set [5] is more than 500 µM. This compound also showed an IC50 in data set [6] of more than 500 µM. The BT score in data set [7] was determined as 0. The MS score in data set [8] turned out to be 0. In data set [9], this compound came in with a CX score of 0. The same compound registered a CP score in data set [10] of 0. In data set [11], this compound showed an EC score of 0. In addition, the KP score in [12] was determined as 0. In addition, the ML score in data set [13] worked out at 0. For the same compound, the BC score in data set [14] is on record as 0. This compound also returned a PA score in [15] of 0.

`FC(F)(F)c1ccc(-c2nnc(-c3nc4ccccc4[nH]3)o2)cc1` [HGN-422, 2-(1H-benzo[d]imidazol-2-yl)-5-(4-(trifluoromethyl)phenyl)-1,3,4-oxadiazole] showed a melting point of 275 to 280 °C. Besides, in data set [1], the “MtIspD melting point change” value was 1.0 °C and the MtIspD melting temp is 49.0 °C. In data set [2], the “LeIspE melting point change” value was −3.25 °C and the LeIspE melting temp came out at 46.25 °C. For the same compound, in [3] (0.15 mM), the Bleaching came to 0, the Germination was found to be 0 and the “Root Dev.” value was determined as 0. Further, in data set [3] (0.3 mM), the Bleaching came out at 0, the Germination is listed as 0 and the “Root Dev.” value stood at 0. Besides, in data set [4] (read-out: AtIspD IC50), the IC50 stood at 251 µM. In [5] (read-out: LeIspE IC50), the IC50 was 267 µM. Besides, the IC50 in [6] (read-out: AtIspF IC50) was more than 500 µM. In addition, in data set [7], the “antibacterial activity against Burkholderia thailandensis” value is reported as “slight antibacterial activity” and the BT score is 1. Moreover, in data set [8], the “antibacterial activity against Mycobacterium smegmatis” value is given as “slight antibacterial activity” and the MS score came to 1. Further, the CX score in [9] came to 0. In addition, the CP score in [10] is reported as 0. Further, in data set [11], the EC score is on record as 0. Besides, the KP score in data set [12] was determined as 0. Also, the ML score in data set [13] was 0. In addition, the BC score in data set [14] was 0. Also, the PA score in data set [15] stood at 0.
